Like-named read-outs stand apart in the source and are kept apart here.

This data set is described as follows: Bioanalysis of compounds in mouse plasma and brain. The following applies: one hour after 30 mg/kg i.p.; for concentration at 1 h: intraperitoneal. The class given is in vivo. As for the experimental part: Adult […] C57BL/6 J mice (3-6 months old) were provided by Charles River. Both females and males (15 females and 9 males) were used in this study. Sex was evenly distributed across experimental groups. Sex was not considered in the study design or analysis, as no reports indicate differential expression levels of GPR139 between male and female mice. They were housed with ad libitum food and water, in a temperature and humidity-controlled environment under a standard 12 h light/dark cycle. The experiments were performed in agreement with the European Council Directive (86/609/EEC) and approved by the local Animal Ethics Committee at Karolinska Institute (3218-2022). All efforts were made to minimize suffering and the number of animals used. Mice were treated with either 10% DMSO + 10% solutol HS-15 + 80% saline (vehicle, n = 8), compound 1.5 (n = 8, 30 mg/kg i.p.), or JNJ-63533054 (n = 8, 30 mg/kg i.p.), both of which were dissolved in 10% DMSO + 10% solutol HS-15 + 80% saline. Mice were placed in an open field arena 10 min after the injection and recorded for 50 min. Total distance travelled and the time spent in the periphery arena were measured using an automated video tracking system (EthoVision XT 11.5; Noldus). One-way ANOVA followed by Dunnett’s multiple comparisons test and Two-way ANOVA followed by Tukey’s multiple comparisons test were used. Brain and blood samples were taken immediately after the locomotion test. The brain samples were quickly frozen, and blood was drawn from the cervical vein upon decapitation into EP tubes. The samples were immediately centrifuged for 10 min at 3000 × g at 4 °C, and the plasma was transferred into clean polypropylene tubes. All samples were stored at −80 °C before analysis.
1.5(S) and JNJ-63533054, and the internal standard warfarin, were quantified in plasma and brain tissue samples, using ultraperformance liquid chromatography-tandem mass spectrometry (UPLC-MS/MS). Samples, respective blanks, standards, and quality controls (QCs) were included in each bioanalytical run. For both compounds, the calibration curves in plasma included standards at 0.5–10 µM, and QCs at 1.9–7.6 µM, and those in brain tissue homogenate included standards at 1–25 µM, and QCs at 1–20 µM.
Plasma samples were first diluted 1:2 (v:v) in blank plasma on a 96-well plate (Corning). Thereafter, the samples, along with blank plasma, standards, and QCs, were precipitated by adding 180 µL ice-cold acetonitrile containing 100 nM warfarin to 20 µL sample. Samples were vortexed and centrifuged at 2465 × g, at 4 °C, for 20 min (Centrifuge 5810 R, Eppendorf, Germany). The supernatants were transferred to a new 96-well plate and 2 µL were injected onto the UPLC-column. One hemisphere of the brains was homogenized 1:4 (w:v) with 0.1 % formic acid in 1:1 acetonitrile and methanol (v:v) in tubes containing ceramic beads (Precellys® Hard Tissue Homogenizing CK28 (inert 2.8 ceramic, zirconium oxide, beads), 2 mL, polypropylene co-polymer, Bertin Technologies). The mechanical homogenization was performed using a Minilys homogenizer (Bertin Technologies, France) for 30 s at the highest speed (5000 rpm). The tubes were centrifuged at 5204 × g for 7 min, and the supernatant was transferred to an Eppendorf tube. Subsequently, brain homogenate supernatants, along with supernatants from blank brain homogenate, standards, and QCs, were treated as described for diluted plasma samples. […]

Take `CC(NC(=O)CNC(=O)c1cccc(Cl)c1)c1ccccc1` (centres unmarked) [JNJ-63533054, reference compound]: the “total brain tissue concentration (Cbrain)” value was determined as 24.8 ± 6.2 µM and the “total plasma concentration (Cplasma)” value was found to be 20.5 ± 5.3 µM. Also, the concentration at 1 h (both sexes, C57BL/6 J, brain, read-out: total brain tissue concentration (Cbrain)) is 24.8 µM. The Kp at 1 h (both sexes, C57BL/6 J, brain/plasma, ip, single time point, read-out: total brain-to-plasma concentration ratio (Kp,brain)) came out at 1.21 ± 0.12. In addition, the concentration at 1 h (both sexes, C57BL/6 J, plasma, read-out: total plasma concentration (Cplasma)) worked out at 20.5 µM.

These data come from paper PMC12775434, “Ultra-large virtual screening unveils potent agonists of the neuromodulatory orphan receptor GPR139” (Nature Communications, 2025).
